Laboratory results taken from US8361740B2, “Peptide standards” (King's College London, priority 2007, dated 2013).
Non-standard residues stand in square brackets, D forms with d. No end group written: not given here. K∗ = stable isotope labelled lysine

System: trypsin
Test: Tryptic digestion of peptide standards, released T6 peptide (LVNEVTEFAK) measured by LC-MSMS (MRM)
Format: biochemical
Conditions: for IS Peak Area (counts): LVNEVTEFAK* signal, internal std + digested peptide 8; for Analyte Peak Area (counts): trypsin 37° C. 30 min
Source text: The first experiment was test the hypothesis that the LVNEVTEFAKT (SEQ ID NO:7) peptide is cleaved to LVNEVTEFAK (SEQ ID NO:10) by trypsin as efficiently as the longer peptides. Using LVNEVTEFAK* (SEQ ID NO:10) as the internal standard peptides (1-5, and 8) were digested using standard protocol. […] This implies that any internal standard peptide where cysteine is the N-terminal amino acid will require the next amino acid in addition to be effective.
Experiment to Determine Number of Amino Acids Required Following Trypsin Digest Site for Digestion.
Assay 50 μl peptide 1-6 & 8 (blank was deionised water)+50 μl internal std Add 10 μl acetonitrile & 10 μl 1% formic acid, vortex mix, and stand for 5 min Add 6 μl […] ammonium bicarbonate & 5 μl trypsin (5 mg/l), vortex mix, and pulse centrifuge (6 sec) Incubate at 37° C. for 30 min & add 500 μl HPLC solvent (acetonitrile:water 1:1 with 0.025% formic acid) Vortex mix and transfer to 96-deep well polypropylene plate Sample volume, 5 μl; flow rate, 500 μl/min Chromatography—teicoplanin guard column MSMS parameters—generic peptide ionisation and doubly charged ion fragmentation T6 doubly charged ion m/z 575.4 and internal std m/z 579.4 Product ions (m/z): 937.4, 823.4, 694.4—internal std (m/z): 945.4, 831.4, 702.4 (150 ms/MRM) Results

Substance: LVNEVTEFAK*T (LVNEVTEFA[K∗]T) [peptide 8]
- signal for LVNEVTEFAK after tryptic digestion (3 different MRMs, LVNEVTEFAK* as internal standard): no signal
- LVNEVTEFAK* signal after tryptic digestion (LVNEVTEFAK* as internal standard): increased by the expected amount
- Internal standard area Ratio (IS + peptide 8 / Mean (Blank, 1-6)) (T6 694): 1.87
- IS Peak Area (counts) (T6 694 transition): 238000 counts
- Internal standard area Ratio (IS + peptide 8 / Mean (Blank, 1-6)) (T6 823): 1.80
- IS Peak Area (counts) (T6 823 transition): 83000 counts
- Internal standard area Ratio (IS + peptide 8 / Mean (Blank, 1-6)) (T6 937): 1.91
- IS Peak Area (counts) (T6 937 transition): 253000 counts
- Analyte Peak Area (counts) (analyte T6 694 (m/z 575.4/694.4)): 149 counts
- Area Ratio (analyte T6 694 / internal std LVNEVTEFAK*): 0.00062
- Analyte Peak Area (counts) (analyte T6 823 (m/z 575.4/823.4)): 62 counts
- Area Ratio (analyte T6 823 / internal std LVNEVTEFAK*): 0.00074
- Analyte Peak Area (counts) (analyte T6 937 (m/z 575.4/937.4)): 147 counts
- Area Ratio (analyte T6 937 / internal std LVNEVTEFAK*): 0.00058
- recovery after tryptic digestion (within the limits of the experiment): full recovery
